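Cultured in 96-well plates, cells were exposed to test compound for 48 hours across five concentrations. GI50: concentration for 50% inhibition of growth. TGI marks complete inhibition of growth.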
Key:
Assay in all cases: inhibition of tumour cell growth, NCI panel, 48 h
[1] = tested on: M14 melanoma
[2] = tested on: MDA-MB-435
[3] = tested on: OVCAR-8 ovarian
[4] = tested on: SNB-19 CNS
[5] = tested on: SR leukemia
[6] = tested on: SNB-75 CNS
[7] = tested on: MALME-3M melanoma
[8] = tested on: RXF 393 renal
[9] = tested on: TK-10 renal
[10] = tested on: SF-539 CNS
[11] = tested on: HOP-92 NSCLC
[12] = tested on: MOLT-4 leukemia
[13] = tested on: UACC-257 melanoma
[14] = tested on: OVCAR-3 ovarian
[15] = tested on: IGROV1 ovarian
[16] = tested on: UACC-62 melanoma
[17] = tested on: HCT-116 colon
[18] = tested on: T-47D breast
[19] = tested on: SK-MEL-2 melanoma
[20] = tested on: K-562 leukemia
[21] = tested on: RPMI-8226 leukemia
[22] = tested on: 786-0 renal
[23] = tested on: A549 NSCLC
[24] = tested on: SN12C renal
[25] = tested on: CCRF-CEM leukemia
[26] = tested on: SK-MEL-5 melanoma
[27] = tested on: A498 renal
[28] = tested on: SW-620 colon
[29] = tested on: DU-145 prostate
[30] = tested on: NCI-H226 lung
[31] = tested on: U251 CNS
[32] = tested on: KM12 colon
[33] = tested on: PC-3 prostate
[34] = tested on: HT29 colon
[35] = tested on: NCI-H522 lung
[36] = tested on: NCI-H23 lung
[37] = tested on: MDA-MB-231 breast
[38] = tested on: OVCAR-4 ovarian
[39] = tested on: HCC-2998 colon
[40] = tested on: LOX IMVI melanoma
[41] = tested on: COLO 205 colon
[42] = tested on: OVCAR-5 ovarian
[43] = tested on: NCI-H460 lung
[44] = tested on: MCF7 breast
[45] = tested on: CAKI-1 renal
[46] = tested on: SK-OV-3 ovarian
[47] = tested on: SK-MEL-28 melanoma
[48] = tested on: ACHN renal
[49] = tested on: NCI/ADR-RES ovarian
[50] = tested on: SF-295 CNS
[51] = tested on: HOP-62 NSCLC
[52] = tested on: BT-549 breast
[53] = tested on: UO-31 renal
[54] = tested on: HS 578T breast
[55] = tested on: HL-60(TB) leukemia
[56] = tested on: HCT-15 colon
[57] = tested on: SF-268 CNS
[58] = tested on: EKVX NSCLC

COc1ccc(/C=C/C(C)=N/OCC(=O)Nc2ccc(Cl)cc2)cc1
GI50 [1]: 3.01 µM
TGI [1]: 14.1 µM
GI50 [2]: 2.44 µM
TGI [2]: 9.76 µM
GI50 [3]: 3.52 µM
TGI [3]: 29.5 µM
GI50 [4]: 3.16 µM
TGI [4]: > 60.1 µM
GI50 [5]: 2.24 µM
TGI [5]: 10.6 µM
GI50 [6]: 3.21 µM
TGI [6]: 32.6 µM
GI50 [7]: 4.22 µM
TGI [7]: 23.3 µM
GI50 [8]: 4.09 µM
TGI [8]: 21.4 µM
GI50 [9]: 7.74 µM
TGI [9]: 38.9 µM
GI50 [10]: 3.16 µM
TGI [10]: 13.4 µM
GI50 [11]: 0.561 µM
TGI [11]: 4.68 µM
GI50 [12]: 2.23 µM
TGI [12]: 9.97 µM
GI50 [13]: 3.4 µM
TGI [13]: 22.2 µM
GI50 [14]: 3.03 µM
TGI [14]: 15 µM
GI50 [15]: 3.42 µM
TGI [15]: 51.6 µM
GI50 [16]: 1.21 µM
TGI [16]: 6.46 µM
GI50 [17]: 1.99 µM
TGI [17]: 9.39 µM
GI50 [18]: 1.63 µM
TGI [18]: 24.8 µM
GI50 [19]: 3.69 µM
TGI [19]: 13.5 µM
GI50 [20]: 2.42 µM
TGI [20]: 17.2 µM
GI50 [21]: 1.89 µM
TGI [21]: 6.21 µM
GI50 [22]: 4.2 µM
TGI [22]: 26.6 µM
GI50 [23]: 3.06 µM
TGI [23]: 45.6 µM
GI50 [24]: 2.8 µM
TGI [24]: > 47.7 µM
GI50 [25]: 2.41 µM
TGI [25]: 29.9 µM
GI50 [26]: 2.36 µM
TGI [26]: 7.98 µM
GI50 [27]: 2.54 µM
TGI [27]: 16.6 µM
GI50 [28]: 3.13 µM
TGI [28]: 20.1 µM
GI50 [29]: 4.11 µM
TGI [29]: 78.6 µM
GI50 [30]: 3.38 µM
TGI [30]: 26.7 µM
GI50 [31]: 2.94 µM
TGI [31]: 13.7 µM
GI50 [32]: 2.24 µM
TGI [32]: 16.5 µM
GI50 [33]: 1.84 µM
TGI [33]: 13.1 µM
GI50 [34]: 3.87 µM
TGI [34]: 18.2 µM
GI50 [35]: 1.81 µM
TGI [35]: 8.01 µM
GI50 [36]: 2.54 µM
TGI [36]: 10.2 µM
GI50 [37]: 1.76 µM
TGI [37]: 8.99 µM
GI50 [38]: 1.97 µM
TGI [38]: 9.96 µM
GI50 [39]: 3.75 µM
TGI [39]: 15.8 µM
GI50 [40]: 2.63 µM
TGI [40]: 15.5 µM
GI50 [41]: 3.64 µM
TGI [41]: 14 µM
GI50 [42]: 5.45 µM
TGI [42]: > 77.3 µM
GI50 [43]: 3.1 µM
TGI [43]: 16.7 µM
GI50 [44]: 2.3 µM
TGI [44]: 18.8 µM
GI50 [45]: 2.29 µM
TGI [45]: 27 µM
GI50 [46]: 5.27 µM
TGI [46]: 42.4 µM
GI50 [47]: 3.17 µM
TGI [47]: 31.6 µM
GI50 [48]: 1.94 µM
TGI [48]: > 38.9 µM
GI50 [49]: 2.9 µM
TGI [49]: 15.3 µM
GI50 [50]: 2.96 µM
TGI [50]: 14.9 µM
GI50 [51]: 5.06 µM
TGI [51]: 27.5 µM
GI50 [52]: 2.71 µM
TGI [52]: 14.4 µM
GI50 [53]: 1.67 µM
TGI [53]: 22 µM
GI50 [54]: 5.85 µM
TGI [54]: 78.5 µM
GI50 [55]: 2.55 µM
TGI [55]: 10.5 µM
GI50 [56]: 2.14 µM
TGI [56]: 15.6 µM
GI50 [57]: 4.2 µM
TGI [57]: 49.4 µM

Oc1ccccc1C=Nc1nc(OCc2ccccc2)nc2[nH]ncc12
GI50 [1]: 21.6 µM
TGI [1]: 57.7 µM
GI50 [2]: 20.7 µM
TGI [2]: 44.8 µM
GI50 [3]: 44.3 µM
TGI [3]: > 100 µM
GI50 [4]: 37.7 µM
TGI [4]: > 100 µM
GI50 [5]: 13.1 µM
TGI [5]: 39.5 µM
GI50 [7]: 16.6 µM
TGI [7]: 38.2 µM
GI50 [8]: 4.56 µM
TGI [8]: 33.4 µM
GI50 [9]: 10.6 µM
TGI [9]: 32.8 µM
GI50 [10]: 22.1 µM
TGI [10]: 43 µM
GI50 [11]: 11.7 µM
TGI [11]: 43.7 µM
GI50 [12]: 21.5 µM
TGI [12]: > 100 µM
GI50 [13]: 34.2 µM
TGI [13]: > 100 µM
GI50 [14]: 17.8 µM
TGI [14]: 49.1 µM
GI50 [15]: 34.8 µM
TGI [15]: > 100 µM
GI50 [16]: 13.6 µM
TGI [16]: 28.9 µM
GI50 [17]: 18.4 µM
TGI [17]: 41.9 µM
GI50 [18]: 14 µM
TGI [18]: 46.3 µM
GI50 [19]: 32.2 µM
TGI [19]: > 100 µM
GI50 [20]: 30.3 µM
TGI [20]: > 100 µM
GI50 [21]: 14.4 µM
TGI [21]: 43.5 µM
GI50 [22]: 34.8 µM
TGI [22]: > 100 µM
GI50 [23]: 38.7 µM
TGI [23]: > 100 µM
GI50 [24]: 17.2 µM
TGI [24]: 40.7 µM
GI50 [26]: 15.1 µM
TGI [26]: 29.7 µM
GI50 [27]: 20.8 µM
TGI [27]: 56.9 µM
GI50 [28]: 27.4 µM
TGI [28]: 76.1 µM
GI50 [29]: 33.9 µM
TGI [29]: > 100 µM
GI50 [30]: 16.5 µM
TGI [30]: 40.6 µM
GI50 [31]: 22.4 µM
TGI [31]: 62 µM
GI50 [32]: 20.4 µM
TGI [32]: 47.1 µM
GI50 [33]: 16.8 µM
TGI [33]: 51.4 µM
GI50 [34]: 22.5 µM
TGI [34]: 49.3 µM
GI50 [58]: 30.1 µM
TGI [58]: 97.8 µM
GI50 [35]: 26.3 µM
TGI [35]: > 100 µM
GI50 [36]: 15.4 µM
TGI [36]: 79.7 µM
GI50 [37]: 15 µM
TGI [37]: 37.3 µM
GI50 [38]: 23.5 µM
TGI [38]: 69.6 µM
GI50 [39]: 20.2 µM
TGI [39]: 38.1 µM
GI50 [40]: 18 µM
TGI [40]: 46.2 µM
GI50 [41]: 22.2 µM
TGI [41]: 49.6 µM
GI50 [42]: 27.2 µM
TGI [42]: 83.9 µM
GI50 [43]: 24.4 µM
TGI [43]: > 100 µM
GI50 [44]: 15.5 µM
TGI [44]: 35.2 µM
GI50 [45]: 14.2 µM
TGI [45]: 50.5 µM
GI50 [46]: 25.9 µM
TGI [46]: 55.4 µM
GI50 [47]: 22.2 µM
TGI [47]: 43.1 µM
GI50 [48]: 28 µM
TGI [48]: > 100 µM
GI50 [49]: 28.5 µM
TGI [49]: 78.8 µM
GI50 [50]: 19.9 µM
TGI [50]: 39.3 µM
GI50 [51]: 26.2 µM
TGI [51]: 84.8 µM
GI50 [52]: 33.7 µM
TGI [52]: 86.7 µM
GI50 [53]: 30.5 µM
TGI [53]: > 100 µM
GI50 [54]: 19.2 µM
TGI [54]: 56.9 µM
GI50 [56]: 38.3 µM
TGI [56]: > 100 µM
GI50 [57]: 20.1 µM
TGI [57]: 77.5 µM

Source: PubChem BioAssay (NCI)
